Test results: patent US5340929A, “Trisazo dye and dye composition containing the same” (Orient Chemical Industries, Ltd., priority 1992, dated 1994)
Like-named read-outs stand apart in the source and are kept apart here.

Columns and labels:
[1] = prior art statement, background; cited from earlier work
[2] = prior art statement, background; cited from earlier work; remark: listed apart in the source
[3] = tested on: strains TA98; settings: cited from earlier work
[4] = Hue of dye / writing; type: physicochemical
[5] = Water resistance of writing (drawdown paper dipped in tap water, reflection density); type: physicochemical; settings: drawndown paper, 3% dye solution, air-dried one day
Experimental: Light resistance: The resulting dye was dissolved in a 5% aqueous diethylene glycol solution to obtain a 3% dye solution. […] A degree of discoloration was compared with that before testing.
Water resistance: The drawndown paper was air-dried for one day and dipped in tap water.
A: Reflection density is more than 70% of that before testing.
B: Reflection density is 50 to 70% of that before testing.
C: Reflection density is less than 50% that before testing.

[6] = tested on: strains TA98; type: cell-based
Experimental: Further, the trisazo dye of the present invention is a nontoxic trisazo dye which gives negative results in a back mutation test using an organism, which is generally known as a test method for evaluating toxicity, i.e. AMES test (mutation test).
Evaluation method of Ames test
Regarding various specimen solutions respectively containing a trisazo dyes obtained in Examples 1 to 8 of the present invention and dyes of Comparative Examples 1 to 3, the number of mutant colonies was determined using strains TA98. 2. When the ratio is less than 2, it is "negative" and, when the ratio is more than 2, it is "positive", and the results are shown in Table. 1.

SMILES	Light resistance of aqueous ink [1]	Water resistance of aqueous ink [2]	Ames test result [3]	Hue [4]	Hue ([4]; listed as Comp. Example 2)	Writing evaluation: Water resistance [5]	Ames test: ratio of the number of colonies to control ([6]; TA98, S-9 (+), 20 μg/plate)	Ames test: ratio of the number of colonies to control ([6]; TA98, S-9 (+), 78 μg/plate)	Ames test: ratio of the number of colonies to control ([6]; TA98, S-9 (+), 313 μg/plate)	Ames test: ratio of the number of colonies to control ([6]; TA98, S-9 (+), 1250 μg/plate)	Ames test: ratio of the number of colonies to control ([6]; TA98, S-9 (+), 5000 μg/plate)	Ames test: ratio of the number of colonies to control ([6]; TA98, S-9 (-), 20 μg/plate)	Ames test: ratio of the number of colonies to control ([6]; TA98, S-9 (-), 78 μg/plate)	Ames test: ratio of the number of colonies to control ([6]; TA98, S-9 (-), 313 μg/plate)	Ames test: ratio of the number of colonies to control ([6]; TA98, S-9 (-), 1250 μg/plate)	Ames test: ratio of the number of colonies to control ([6]; TA98, S-9 (-), 5000 μg/plate)	Ames test result ([3]; prior art statement, background)	Hue ([4]; listed as Comp. Example 3)
Nc1cc2c(O)c(N=Nc3ccc(N=Nc4ccc(S(=O)(=O)[O-])cc4)c4ccc(S(=O)(=O)[O-])cc34)c(S(=O)(=O)[O-])cc2cc1S(=O)(=O)[O-].[Na+].[Na+].[Na+].[Na+] [Food Black 2]	poor	poor	–	–	–	–	–	–	–	–	–	–	–	–	–	–	–	–
Nc1ccc(N=Nc2ccc(N=Nc3c(S(=O)(=O)[O-])cc4cc(S(=O)(=O)[O-])c(N=Nc5ccc(N=Nc6ccc(N)cc6N)cc5)c(O)c4c3N)cc2)c(N)c1.[Na+].[Na+] [compound 2, C.I. Direct Black 19, reference compound]	–	–	false positive or positive	Yellowish	yellowish black	A (Reflection density is more than 70% of that before testing.)	8.33	24.2	75.0	52.8	4.00	0.92	0.88	1.48	2.24	2.84	–	–
Cc1cc(-c2ccc(N=Nc3c(S(=O)(=O)[O-])cc4cc(S(=O)(=O)[O-])c(N=Nc5ccccc5)c(O)c4c3N)c(C)c2)ccc1N=Nc1ccc(N)cc1N.[Na+].[Na+] [compound 3, C.I. Direct Black 154, reference compound]	–	–	–	Greenish	–	B (Reflection density is 50 to 70% of that before testing.)	1.92	2.35	2.50	1.50	0.85	0.72	0.68	0.84	0.76	0.96	false positive or positive	greenish black
